Results on two compounds are retold here after US11564920B2, “5-heteroaryl-1H-pyrazol-3-amine derivative” (Sumitomo Pharma Co., Ltd., priority 2020, dated 2023).

Some results are limits rather than exact numbers.

For one series, the target named is SIK1 (Homo sapiens (Human), UniProt P57059). In words: Kinase selectivity test (HotSpot Full Panel Kinase profiling). The format is biochemical. To be noted: 100 nM, ATP 10 μM; read-out: Residual activity (%) SIK1. On the procedure: (§1) Buffer: 20 mM HEPES, pH 7.5, 10 mM MgCl2, 2 mM […] (as needed), 1 mM EGTA, 0.02% Brij35, 0.02 mg/mL BSA, 0.1 mM Na3VO4, 2 mM DTT, 1% DMSO
Sequence of SIK1 (P57059 whole entry): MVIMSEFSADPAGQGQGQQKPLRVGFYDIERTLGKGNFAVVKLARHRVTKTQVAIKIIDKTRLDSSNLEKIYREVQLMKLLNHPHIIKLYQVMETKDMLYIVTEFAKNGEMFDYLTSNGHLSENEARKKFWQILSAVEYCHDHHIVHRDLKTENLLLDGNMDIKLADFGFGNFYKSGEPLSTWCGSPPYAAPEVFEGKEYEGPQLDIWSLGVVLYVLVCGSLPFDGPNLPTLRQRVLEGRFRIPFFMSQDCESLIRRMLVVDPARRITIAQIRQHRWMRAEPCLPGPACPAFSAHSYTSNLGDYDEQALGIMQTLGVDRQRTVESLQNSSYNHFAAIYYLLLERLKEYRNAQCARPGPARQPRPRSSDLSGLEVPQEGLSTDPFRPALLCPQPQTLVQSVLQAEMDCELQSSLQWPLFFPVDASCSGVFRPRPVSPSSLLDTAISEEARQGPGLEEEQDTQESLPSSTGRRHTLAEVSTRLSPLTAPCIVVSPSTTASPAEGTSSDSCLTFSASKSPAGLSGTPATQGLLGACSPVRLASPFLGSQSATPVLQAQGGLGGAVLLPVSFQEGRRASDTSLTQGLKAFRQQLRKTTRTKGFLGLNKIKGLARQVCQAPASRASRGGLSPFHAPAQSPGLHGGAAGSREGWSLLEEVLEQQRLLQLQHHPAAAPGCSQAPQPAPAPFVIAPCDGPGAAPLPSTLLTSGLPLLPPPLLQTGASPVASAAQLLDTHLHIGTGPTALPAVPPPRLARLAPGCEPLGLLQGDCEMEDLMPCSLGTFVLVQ
(§2) ATP conversion rate in 2 hours: 5 to 20%
(§3) Compound concentration: 100 nM

For the next series, the target named is LRRK2 (Homo sapiens (Human), UniProt Q5S007). The description is as above. The format is biochemical. To be noted: 100 nM, ATP 10 μM; read-out: Residual activity (%) LRRK2. On the procedure: as §1, §2, §3
Sequence of LRRK2 (Q5S007 whole entry): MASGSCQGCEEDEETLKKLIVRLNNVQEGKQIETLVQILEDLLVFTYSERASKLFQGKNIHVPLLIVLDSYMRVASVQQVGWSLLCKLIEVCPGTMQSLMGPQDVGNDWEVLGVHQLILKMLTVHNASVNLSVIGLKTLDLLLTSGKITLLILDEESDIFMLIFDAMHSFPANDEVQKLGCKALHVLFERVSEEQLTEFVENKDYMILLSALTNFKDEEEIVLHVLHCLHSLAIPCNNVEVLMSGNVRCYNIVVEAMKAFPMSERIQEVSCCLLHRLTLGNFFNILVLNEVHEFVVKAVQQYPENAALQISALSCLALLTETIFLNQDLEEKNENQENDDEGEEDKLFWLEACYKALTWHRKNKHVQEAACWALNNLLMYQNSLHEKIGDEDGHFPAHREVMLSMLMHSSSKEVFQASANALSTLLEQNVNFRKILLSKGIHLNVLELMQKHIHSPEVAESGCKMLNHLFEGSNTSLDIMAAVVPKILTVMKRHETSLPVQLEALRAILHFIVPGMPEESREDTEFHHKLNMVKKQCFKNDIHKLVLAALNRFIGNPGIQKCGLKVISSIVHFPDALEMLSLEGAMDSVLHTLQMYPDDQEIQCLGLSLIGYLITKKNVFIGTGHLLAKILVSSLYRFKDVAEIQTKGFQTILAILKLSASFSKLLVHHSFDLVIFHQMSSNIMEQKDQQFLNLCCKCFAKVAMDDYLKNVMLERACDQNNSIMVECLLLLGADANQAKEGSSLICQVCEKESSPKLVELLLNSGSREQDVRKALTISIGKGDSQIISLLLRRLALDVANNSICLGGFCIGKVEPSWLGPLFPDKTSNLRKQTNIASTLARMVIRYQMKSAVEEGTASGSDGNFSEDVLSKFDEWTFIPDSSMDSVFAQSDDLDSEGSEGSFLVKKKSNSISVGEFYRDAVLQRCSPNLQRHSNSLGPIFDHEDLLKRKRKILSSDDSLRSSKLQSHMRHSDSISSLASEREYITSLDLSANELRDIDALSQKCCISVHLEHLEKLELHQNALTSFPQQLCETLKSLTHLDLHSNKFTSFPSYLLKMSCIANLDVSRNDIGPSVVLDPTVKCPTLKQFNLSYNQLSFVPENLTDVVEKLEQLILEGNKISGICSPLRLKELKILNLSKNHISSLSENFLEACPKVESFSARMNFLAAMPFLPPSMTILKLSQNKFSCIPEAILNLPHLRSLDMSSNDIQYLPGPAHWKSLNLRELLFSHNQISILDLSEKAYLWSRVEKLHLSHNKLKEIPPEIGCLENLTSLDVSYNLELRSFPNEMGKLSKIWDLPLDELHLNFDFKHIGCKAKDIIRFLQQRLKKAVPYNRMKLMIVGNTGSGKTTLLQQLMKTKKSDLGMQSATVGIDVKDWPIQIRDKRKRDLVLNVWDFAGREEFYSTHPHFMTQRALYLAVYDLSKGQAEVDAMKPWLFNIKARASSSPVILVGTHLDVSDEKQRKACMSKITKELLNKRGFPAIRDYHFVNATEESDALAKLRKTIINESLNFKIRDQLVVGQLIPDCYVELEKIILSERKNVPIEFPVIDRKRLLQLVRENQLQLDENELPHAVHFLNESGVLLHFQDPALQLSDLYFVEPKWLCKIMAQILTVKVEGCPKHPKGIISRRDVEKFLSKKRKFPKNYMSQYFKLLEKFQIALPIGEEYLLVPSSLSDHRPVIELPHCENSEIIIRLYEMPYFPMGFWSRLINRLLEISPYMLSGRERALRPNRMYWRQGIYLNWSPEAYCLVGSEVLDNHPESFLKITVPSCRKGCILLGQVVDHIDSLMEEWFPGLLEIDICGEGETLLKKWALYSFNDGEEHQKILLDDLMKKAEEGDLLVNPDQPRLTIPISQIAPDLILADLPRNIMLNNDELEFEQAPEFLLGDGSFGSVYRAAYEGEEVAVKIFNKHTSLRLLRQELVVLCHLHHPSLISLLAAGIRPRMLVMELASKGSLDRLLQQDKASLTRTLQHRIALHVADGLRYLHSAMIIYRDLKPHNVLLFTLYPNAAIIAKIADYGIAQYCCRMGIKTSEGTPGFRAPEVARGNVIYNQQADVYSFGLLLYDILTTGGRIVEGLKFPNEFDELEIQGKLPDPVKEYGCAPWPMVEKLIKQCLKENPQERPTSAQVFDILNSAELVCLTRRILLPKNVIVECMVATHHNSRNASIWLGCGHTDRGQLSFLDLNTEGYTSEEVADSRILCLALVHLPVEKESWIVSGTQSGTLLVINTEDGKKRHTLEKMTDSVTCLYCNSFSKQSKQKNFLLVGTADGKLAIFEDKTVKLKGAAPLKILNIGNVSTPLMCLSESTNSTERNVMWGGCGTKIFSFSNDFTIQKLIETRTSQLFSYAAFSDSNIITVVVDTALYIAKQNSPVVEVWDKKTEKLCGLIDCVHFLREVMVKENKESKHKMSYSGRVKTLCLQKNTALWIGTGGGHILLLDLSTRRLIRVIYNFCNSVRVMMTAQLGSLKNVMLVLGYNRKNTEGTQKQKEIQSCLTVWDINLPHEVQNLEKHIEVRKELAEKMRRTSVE
A further series has as its target GLK/MAP4K3 (Homo sapiens (Human), UniProt Q8IVH8). The series is described as above. The conditions noted are these: 100 nM, ATP 10 μM; read-out: Residual activity (%) GLK/MAP4K3. The series is classed as biochemical. On the procedure:
as §1, §2, §3

Series [1] in a line: Liposome encapsulation test of Example 1 (Test Example 6A). The format is physicochemical. The procedure:
11.08 g of Presome ACD-1 (pre-prepared mixture consisting of hydrogenated soybean phosphatidylcholine, cholesterol, and distearoylphosphatidylethanolamine-methoxypolyethylene glycol 2000 at a mass ratio of 3:1:1, Nippon Fine Chemical Co., Ltd.) was weighed out, and 200 mL of 250 mM ammonium sulfate solution was added. The resulting mixture was heated to 65° C. and dispersed with a homogenizer (ULTRA-TURRAX, IKA) to obtain a crude liposome dispersion. […] The mixture was filtered through a 0.22 μm membrane filter to obtain an empty liposome solution with a total lipid concentration of 75 mM (75 μmol/mL).
The compound of Example 1 was weighed out. About 0.4 mL of 10 mM L-histidine buffer/10% sucrose solution (pH 6.5), about 0.1 mL of 0.1 mol/L hydrochloric acid, and 1 mL of the empty liposome solution were added, and the pH was adjusted to 6 to 6.5 by adding 1 mol/L hydrochloric acid. The mixture was heated for 30 minutes in a 65° C. water bath and then cooled with ice. The mixture was then filtered through a 0.22 μm membrane filter.
The liposome encapsulation ratio was calculated as follows. Unencapsulated compound concentration: The compound concentration was measured by HPLC for a solution prepared by adding 100 μL of aqueous 4% phosphoric acid solution to 100 μL of liposome solution. HPLC measurement conditions are the following.
Compound concentration in liposome solution: The liposome solution was diluted with a trifluoroacetic acid/water/methanol mixture (0.1/25/75) and was left standing for 10 minutes or longer at 5° C. The mixture was centrifuged for 5 minutes at 15,000×g to remove insolubles. The compound concentration in the supernatant was measured by HPLC. HPLC measurement conditions are the following. HPLC Conditions Column: Acquity UPLC BEH C18, 1.7 μm, 50×2.1 mm Column temperature: 40° C. Mobile phase: A: 0.1% trifluoroacetic acid containing water B: acetonitrile A/B (min): 95/5 (0)→0/100 (3.5)→0/100 (4)→95/5 (4.01)→95/5 (5) Flow rate: 0.8 mL/min Detection: UV visible detector, measured wavelength 254 nm injected volume: 5 μL
The encapsulation ratio and encapsulation efficiency were calculated by the following equations. Encapsulation ratio (%)=(compound concentration in liposome solution−unencapsulated compound concentration)×100/compound concentration in liposome solution Encapsulation efficiency (%)=(compound concentration in liposome solution−unencapsulated compound concentration)[…]

The target in a further series is CHK2 (Homo sapiens (Human), UniProt O96017). The experiment in a line: CHK1/CHK2 selectivity test (LabChip mobility shift). To be noted: read-out: IC50 value with respect to CHK2. The format is biochemical.
Sequence of CHK2 (O96017 whole entry): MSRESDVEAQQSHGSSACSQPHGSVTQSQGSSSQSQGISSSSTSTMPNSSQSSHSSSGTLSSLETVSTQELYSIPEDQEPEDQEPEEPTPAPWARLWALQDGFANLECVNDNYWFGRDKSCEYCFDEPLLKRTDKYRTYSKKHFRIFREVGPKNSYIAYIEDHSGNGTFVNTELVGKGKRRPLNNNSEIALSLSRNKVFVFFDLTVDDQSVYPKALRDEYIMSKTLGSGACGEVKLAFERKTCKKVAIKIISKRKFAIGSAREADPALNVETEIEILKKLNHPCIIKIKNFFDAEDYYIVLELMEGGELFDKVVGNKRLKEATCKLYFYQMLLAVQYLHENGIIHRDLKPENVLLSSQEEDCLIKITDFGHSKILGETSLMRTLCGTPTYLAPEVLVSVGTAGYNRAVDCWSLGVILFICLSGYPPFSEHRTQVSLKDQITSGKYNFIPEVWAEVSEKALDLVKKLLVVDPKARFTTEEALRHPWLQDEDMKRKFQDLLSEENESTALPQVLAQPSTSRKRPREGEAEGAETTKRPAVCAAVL

For orientation: IC50 means the concentration that gives 50% inhibition.

Sequence of GLK/MAP4K3 (Q8IVH8 whole entry): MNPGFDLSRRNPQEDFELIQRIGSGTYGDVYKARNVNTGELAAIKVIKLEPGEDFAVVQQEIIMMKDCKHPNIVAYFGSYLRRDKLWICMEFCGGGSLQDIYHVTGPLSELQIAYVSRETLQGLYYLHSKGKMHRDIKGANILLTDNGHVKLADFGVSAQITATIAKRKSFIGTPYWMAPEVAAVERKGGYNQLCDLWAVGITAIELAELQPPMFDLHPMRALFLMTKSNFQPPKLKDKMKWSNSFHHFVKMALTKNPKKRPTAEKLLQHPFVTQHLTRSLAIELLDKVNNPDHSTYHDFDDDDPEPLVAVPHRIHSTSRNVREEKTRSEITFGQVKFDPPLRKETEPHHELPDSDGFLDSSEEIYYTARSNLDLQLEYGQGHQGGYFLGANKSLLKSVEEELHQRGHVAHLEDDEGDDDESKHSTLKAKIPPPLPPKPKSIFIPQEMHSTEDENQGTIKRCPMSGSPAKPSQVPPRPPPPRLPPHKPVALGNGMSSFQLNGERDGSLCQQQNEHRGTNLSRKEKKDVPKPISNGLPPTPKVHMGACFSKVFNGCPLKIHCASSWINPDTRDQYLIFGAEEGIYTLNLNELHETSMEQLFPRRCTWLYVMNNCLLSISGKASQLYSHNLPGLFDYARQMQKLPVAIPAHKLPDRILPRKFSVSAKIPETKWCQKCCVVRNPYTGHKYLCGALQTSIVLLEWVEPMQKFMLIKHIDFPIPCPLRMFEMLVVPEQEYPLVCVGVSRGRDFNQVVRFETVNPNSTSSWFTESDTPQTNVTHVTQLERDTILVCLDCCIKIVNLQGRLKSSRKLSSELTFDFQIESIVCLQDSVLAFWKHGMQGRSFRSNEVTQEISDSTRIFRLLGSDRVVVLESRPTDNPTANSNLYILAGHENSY
Protocol for CHK2: A 4-fold concentration test compound solution was prepared with an assay buffer (20 mM HEPES, 0.01% Triton X-100, 1 mM DTT, pH 7.5). A 4-fold concentration substrate/ATP/metal solution was prepared with a kit buffer (20 mM HEPES, 0.01% Triton X-100, 5 mM DTT, pH 7.5).

Regarding `COc1cccc(OCCCN)c1-c1cc(Nc2cnc(C#N)cn2)n[nH]1` [Prexasertib, reference compound], the values for the remaining activity at 0.1 µM at SIK1, at LRRK2 and at GLK/MAP4K3 were 11.9%, 23.5% and 20.8%, respectively.
As to `COc1ccnc(OCCCN)c1-c1cc(Nc2cnc(C#N)cn2)n[nH]1` [Example 1, 5-({5-[2-(3-aminopropoxy)-4-methoxypyridin-3-yl]-1H-pyrazol-3-yl}amino)pyrazine-2-carbonitrile], in series [1], the “liposome encapsulation efficiency” value was ≥ 90%. The Encapsulation efficiency in series [1] (concentration upon compound introduction 2 mg/mL) stood at 91.3%; in series [1] (concentration upon compound introduction 3 mg/mL) it was 91.6%; in series [1] (concentration upon compound introduction 4 mg/mL), 92.2%. Besides, the half-inhibitory concentration (IC50) at CHK2 came to 56.6 nM.
